The subject of assay [1] is IRE1. The assay is described as follows: Xbp-1 splicing assay (RT-PCR) in HEK-293T cells. The note with it: 1 mM DTT, 2 h. Type of assay: cell-based, human.
Assay [2] has as its system Integrated Stress Response. The assay is described as follows: UL148-GFP visual probe for ISR inhibition in living cells. Type of assay: cell-based. The note with it: ARPE-19 cells, UL148-GFP induced 18 hours with 100 ng/mL doxycycline hyclate; 200 nM ISRIB in FIG. 2B. From the text:
The disclosed technology is based on UL148, a viral endoplasmic reticulum (ER)-resident protein, which influences the expression of a viral glycoprotein complex required for cell entry. UL148 activates the Unfolded Protein Response (UPR), resulting in stress-regulated translation of ISR mRNAs such as ATF4. ISR/UPR activation by UL148 causes the formation of large membranous structures from the ER, at which UL148 itself accumulates. […] Other fluorescent proteins may include Allophycocyanin, Brainbow, Cameleon, FMN-binding fluorescent protein, Glutamate-sensitive fluorescent reporter, MCherry, Phycoerythrin, Red fluorescent protein, RoGFP, SmURFP, Synapto-pHluorin, and Yellow fluorescent protein. […] Instead, treatment with an ISR-inhibitor (e.g., ISRIB) causes UL148-GFP to be evenly distributed across the ER such that the GFP staining is uniform and reticular. Therefore, the simple task of determining whether GFP signal is present and whether it is uniform or punctate provides a facile read-out that can be automated to enable high throughput screening for novel small molecule inhibitors that inhibit the ISR.
ARPE-19 epithelial cells carrying a doxycycline inducible gene expression cassette encoding UL148-GFP were treated for 18 hours with 100 ng/mL doxycycline hyclate to induce UL148-GFP expression. In panel A, (FIG. 2A) UL148-GFP was induced in the absence of ISRIB. […]

The subject of assay [3] is PERK. The assay is described as follows: Western blot for PERK activation in stably transduced ARPE-19 cells. Type of assay: cell-based. The note with it: 200 nM Tg, 4 h. On the technique in general: Immunoblotting shows a protein as a band on a membrane.
In assay [4] the test system is IRE1. In words: Western blot for phospho-IRE1 (Ser724) in fibroblasts. Type of assay: cell-based, human. The note with it: Tg-treated fibroblast lysates vs mock-treated, noninfected cells.
Assay [5] deals with protein synthesis (mRNA translation) in ARPE-19 cells. The assay is described as follows: Metabolic labeling (35S Met/Cys incorporation) in i148HA and i159HA ARPE-19 cells. Type of assay: cell-based. Conditions: 24 h Dox induction, 30 min 35S Met/Cys pulse, phosphorimager analysis. As for the experimental part:
Having isolated stably transduced ARPE-19 cell populations, the inventors confirmed that that anti-HA immunoreactive polypeptides of the expected size for UL148 (i148^HA) or Rh159 (i159^HA) were induced upon treatment with 100 ng/ml doxycycline (Dox). Furthermore, expression of neither protein caused any overt reduction in cell viability or number, as measured by trypan blue exclusion following 24 h of Dox induction. The inventors therefore concluded that the i148^HA and i159^HA ARPE-19 cells were suitable to address whether UL148 might affect rates of mRNA translation in metabolic labeling studies. For these experiments, i148^HA and i159^HA cells were induced (or mock induced) for transgene expression for 24 h and then incubated in the presence of ^35S-labeled methionine and cysteine for 30 min. In parallel, labeling was also carried out using i159^HA cells that were incubated in the presence of either thapsigargin (Tg) or carrier alone, so as to provide positive and negative controls, respectively, for UPR induction.
Metabolic labeling. i159^HA or i148^HA cells were seeded at 2×10^5 cells per well in a 24-well cluster plate in Gibco Opti-MEM reduced serum medium (Thermo Fisher) supplemented with 2.5% tetracycline (Tet)-free FBS (Clontech 631101). […] The relative signal per lane was calculated using Bio-Rad 1-D analysis software by reading the signal volume (counts·mm^2) in each lane. […]

For the molecule `O[C@H](CS)[C@H](O)CS` (racemic) [DTT, dithiothreitol], in assay [1], the “splicing of the 26-nt intron from Xbp-1 mRNA” value is “spliced from nearly all the Xbp-1 mRNA”.
On to `O=C(COc1ccc(Cl)cc1)NC1CCC(NC(=O)COc2ccc(Cl)cc2)CC1` (centres unmarked) [ISRIB], for which the “formation of UL148 structures” value in assay [2] was “completely blocks the formation of UL148 structures”.
Regarding `C/C=C(/C)C(=O)O[C@H]1C(C)=C2[C@H]([C@@H]1OC(=O)CCCCCCC)[C@@](C)(OC(C)=O)C[C@H](OC(=O)CCC)[C@@]1(O)[C@H]2OC(=O)[C@@]1(C)O` [Tg, thapsigargin], the “decreased mobility of the anti-PERK immunoreactive band (PERK autophosphorylation)” value in assay [3] is “readily observed”. Moreover, in assay [4], the phospho-IRE1 signal entry is listed as “robust phospho-IRE1 signal”.

B1: UL148: viral ER-resident glycoprotein from human cytomegalovirus, ectopically expressed with a C-terminal HA tag (protein, UniProt F5H8Q3 21-316, looked up)
Membrane protein UL148: SRDYVHVRLLSYRGDPLVFKHTFSGVRRPFTELGWAACRDWDSMHCTPFWSTDLEQMTDSVRRYSTVSPGKEVTLQLHGNQTVQPSFLSFTCRLQLEPVVENVGLYVAYVVNDGERPQQFFTPQVDVVRFALYLETLSRIVEPLESGRLTVEFDTPDLALAPDLVSSLFVAGHGETDFYMNWTLRRSQTHYLEEMALQVEILKPRGVRHRAIIHHPKLQPGVGLWIDFCVYRYNARLTRGYVRYTLSPKARLPAKAEGWLVSLDRFIVQYLNTLLITMMAAIWARVLITYLVSRRR
modifications: C-terminal HA tag
In the case of B1, the “decrease in protein synthesis compared to carrier-alone control” value in assay [5] was approximately 50%.

The values above are taken from patent US20200278343A1, “DIRECT VISUALIZATION OF INTEGRATED STRESS RESPONSE ACTIVITY” (priority 2019, published 2020).
